ChEMBL document CHEMBL2074522, “Role of P-glycoprotein-mediated secretion in absorptive drug permeability: An approach using passive membrane permeability and affinity to P-glycoprotein” (J Pharm Sci, 1999)
pKi: −log10 of the molar value.

Target: ATP-dependent translocase ABCB1 (Homo sapiens, UniProt P08183)
Assay: TP_TRANSPORTER: inhibition of Verapamil binding in membranes from Vinblastine-induced Caco-2 cells
Format: functional, cell membranes, Membrane

Chain of ATP-dependent translocase ABCB1 (P08183 whole entry): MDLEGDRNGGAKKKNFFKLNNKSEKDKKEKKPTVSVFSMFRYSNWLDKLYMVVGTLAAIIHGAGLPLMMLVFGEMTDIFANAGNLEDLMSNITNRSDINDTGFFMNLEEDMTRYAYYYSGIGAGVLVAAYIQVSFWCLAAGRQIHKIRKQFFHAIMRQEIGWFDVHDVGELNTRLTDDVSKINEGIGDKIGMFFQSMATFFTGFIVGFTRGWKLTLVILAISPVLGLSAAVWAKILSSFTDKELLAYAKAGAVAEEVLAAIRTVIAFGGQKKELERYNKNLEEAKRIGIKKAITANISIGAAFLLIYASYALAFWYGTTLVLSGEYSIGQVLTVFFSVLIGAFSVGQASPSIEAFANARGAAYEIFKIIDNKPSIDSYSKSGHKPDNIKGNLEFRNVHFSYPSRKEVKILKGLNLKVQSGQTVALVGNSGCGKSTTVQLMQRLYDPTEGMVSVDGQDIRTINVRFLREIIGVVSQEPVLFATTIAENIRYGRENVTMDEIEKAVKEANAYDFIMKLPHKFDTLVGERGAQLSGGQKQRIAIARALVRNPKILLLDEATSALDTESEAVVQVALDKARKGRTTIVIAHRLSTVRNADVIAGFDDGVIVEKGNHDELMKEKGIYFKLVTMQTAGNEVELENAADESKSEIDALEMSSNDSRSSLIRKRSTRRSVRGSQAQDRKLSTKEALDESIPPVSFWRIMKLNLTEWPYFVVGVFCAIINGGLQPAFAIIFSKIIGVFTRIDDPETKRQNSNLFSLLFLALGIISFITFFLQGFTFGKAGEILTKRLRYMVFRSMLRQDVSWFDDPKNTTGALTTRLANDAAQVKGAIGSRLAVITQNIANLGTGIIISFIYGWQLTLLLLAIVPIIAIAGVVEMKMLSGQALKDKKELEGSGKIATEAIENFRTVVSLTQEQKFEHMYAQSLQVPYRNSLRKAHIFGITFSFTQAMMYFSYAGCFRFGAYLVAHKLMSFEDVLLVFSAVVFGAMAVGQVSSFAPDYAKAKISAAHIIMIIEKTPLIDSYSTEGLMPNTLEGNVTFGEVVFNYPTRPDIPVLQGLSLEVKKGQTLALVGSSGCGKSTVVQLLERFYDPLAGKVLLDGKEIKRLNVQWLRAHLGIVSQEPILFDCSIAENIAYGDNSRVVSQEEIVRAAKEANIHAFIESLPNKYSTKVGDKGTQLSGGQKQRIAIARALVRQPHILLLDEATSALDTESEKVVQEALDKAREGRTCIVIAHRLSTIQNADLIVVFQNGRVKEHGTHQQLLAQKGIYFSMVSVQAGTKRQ

Work on `CC(C)NCC(O)COc1ccc(CCNC(=O)NC(C)C)cc1` (configuration not stated) [PAFENOLOL] yielded a pKi (read-out: Ki1) of 5.26 and a pKi (read-out: Ki2) of 2.49.
